Consider 22 compounds from patent publication US20190231751A1, “TREATMENT OF FIBROTIC DISORDERS WITH JUN N-TERMINAL KINASE INHIBITORS” (Imago Pharmaceuticals, Inc., priority 2016, published 2019).

Format in all cases: biochemical
One assay deals with JNK1 (Homo sapiens, UniProt P45983). As to the kind of experiment: In vitro JNK1 inhibition (Table 1). The method, then: (§1) In vitro assays for the determination of JNK activities are known in the art and exemplary assay formats are described herein.
(§2) IC50 values in Table 1 were determined using the procedures as described in U.S. Pat. No. 8,450,353.

In another assay the target is JNK2 (Homo sapiens, UniProt P45984). The experiment in a line: In vitro JNK2 inhibition (Table 1). The method, then:
as §1, §2

Another assay addresses JNK3 (Homo sapiens, UniProt P53779). The experiment in a line: In vitro JNK3 inhibition (Table 1). How it is done: as §1, §2

Sequence of JNK3 (P53779 whole entry, species assumed): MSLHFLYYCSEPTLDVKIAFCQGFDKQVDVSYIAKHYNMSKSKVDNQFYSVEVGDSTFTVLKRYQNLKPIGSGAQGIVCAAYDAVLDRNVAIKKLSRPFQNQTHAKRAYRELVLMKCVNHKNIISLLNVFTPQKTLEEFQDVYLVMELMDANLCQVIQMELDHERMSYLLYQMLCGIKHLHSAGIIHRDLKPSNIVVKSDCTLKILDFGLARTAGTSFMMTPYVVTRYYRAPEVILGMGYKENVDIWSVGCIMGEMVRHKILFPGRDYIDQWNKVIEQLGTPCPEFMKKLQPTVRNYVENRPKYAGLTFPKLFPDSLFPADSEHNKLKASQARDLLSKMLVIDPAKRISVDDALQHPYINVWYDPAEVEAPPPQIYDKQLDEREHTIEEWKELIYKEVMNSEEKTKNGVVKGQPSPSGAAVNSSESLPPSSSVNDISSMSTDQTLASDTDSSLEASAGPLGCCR
Sequence of JNK2 (P45984 whole entry, species assumed): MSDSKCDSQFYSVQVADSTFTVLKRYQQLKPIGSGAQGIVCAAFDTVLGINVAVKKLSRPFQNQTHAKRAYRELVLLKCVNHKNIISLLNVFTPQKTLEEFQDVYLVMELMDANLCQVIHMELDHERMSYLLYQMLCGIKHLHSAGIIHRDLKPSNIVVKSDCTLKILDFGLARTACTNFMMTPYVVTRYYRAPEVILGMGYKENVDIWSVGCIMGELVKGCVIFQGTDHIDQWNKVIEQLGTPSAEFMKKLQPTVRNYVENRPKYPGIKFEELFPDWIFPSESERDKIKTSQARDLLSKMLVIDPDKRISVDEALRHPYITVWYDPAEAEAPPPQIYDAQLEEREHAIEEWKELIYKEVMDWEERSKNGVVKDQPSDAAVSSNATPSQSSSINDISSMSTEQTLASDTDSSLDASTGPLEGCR
Sequence of JNK1 (P45983 whole entry, species assumed): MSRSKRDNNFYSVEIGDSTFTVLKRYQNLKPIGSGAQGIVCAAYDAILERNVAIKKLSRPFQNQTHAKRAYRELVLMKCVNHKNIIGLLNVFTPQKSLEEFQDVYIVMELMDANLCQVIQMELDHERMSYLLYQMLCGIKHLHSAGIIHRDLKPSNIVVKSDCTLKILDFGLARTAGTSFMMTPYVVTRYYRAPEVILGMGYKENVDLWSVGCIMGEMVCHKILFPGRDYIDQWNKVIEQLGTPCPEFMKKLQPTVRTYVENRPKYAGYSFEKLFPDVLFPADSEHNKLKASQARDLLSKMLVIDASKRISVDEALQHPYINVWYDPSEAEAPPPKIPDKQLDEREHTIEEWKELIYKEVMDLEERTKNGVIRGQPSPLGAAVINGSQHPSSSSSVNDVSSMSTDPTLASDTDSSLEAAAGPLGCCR

As usually defined, the IC50 is the concentration that inhibits the measured activity by half. For the compound `O=C(Cn1c(=O)ccn2nc(C(F)(F)F)cc12)Nc1scc(Br)c1-c1ncn[nH]1` [N-(4-bromo-3-(1H-1,2,4-triazol-5-yl)thiophen-2-yl)-2-(5-oxo-2-(trifluoromethyl)pyrazolo[1,5-a]pyrimidin-4(5H)-yl)acetamide], the IC50 against JNK1, at JNK2 and against JNK3 was < 100 nM in each case.

Take `CN(C)CCN(C(=O)Cn1c(=O)ccc2cc(C(F)(F)F)ccc21)c1scc(Cl)c1-c1nc[nH]n1` [N-(4-chloro-3-(1H-1,2,4-triazol-3-yl)thiophen-2-yl)-N-(2-(dimethylamino)ethyl)-2-(2-oxo-6-(trifluoromethyl)quinolin-1(2H)-yl)acetamide]: the IC50 against JNK1, against JNK2 and at JNK3 was 100 to 10000 nM in each case.

As to `O=C(Cn1c(=O)ccc2cnc(C(F)(F)F)cc21)Nc1scc(Cl)c1-c1nc[nH]n1` [N-(4-chloro-3-(1H-1,2,4-triazol-3-yl)thiophen-2-yl)-2-(2-oxo-7-(trifluoromethyl)-1,6-naphthyridin-1(2H)-yl)acetamide], the IC50 against JNK1, against JNK2 and on JNK3 was < 100 nM in each case.

As to `O=C(Cc1cccc2ncccc12)Nc1scc(Br)c1-c1ncn[nH]1` [N-(4-bromo-3-(1H-1,2,4-triazol-5-yl)thiophen-2-yl)-2-(quinolin-5-yl)acetamide], the IC50 against JNK1, against JNK2 and on JNK3 was < 100 nM in each case.

As to `CN(C)CCn1cnc(-c2c(Cl)csc2NC(=O)Cn2c(=O)ccc3cc(C(F)(F)F)ccc32)n1` [N-(4-chloro-3-(1-(2-(dimethylamino)ethyl)-1H-1,2,4-triazol-3-yl)thiophen-2-yl)-2-(2-oxo-6-(trifluoromethyl)quinolin-1(2H)-yl)acetamide], the IC50 at JNK1, on JNK2 and on JNK3 was < 100 nM in each case.

In the case of `O=C(Cn1c(=O)ccc2cnccc21)Nc1scc(Br)c1-c1ncn[nH]1` [N-(4-bromo-3-(1H-1,2,4-triazol-5-yl)thiophen-2-yl)-2-(2-oxo-1,6-naphthyridin-1(2H)-yl)acetamide], the IC50 against JNK1, at JNK2 and against JNK3 was < 100 nM in each case.

Take `O=C(Cn1c(=O)ccc2cc(Cl)ccc21)Nc1scc(Br)c1-c1ncn[nH]1` [N-(4-bromo-3-(1H-1,2,4-triazol-5-yl)thiophen-2-yl)-2-(6-chloro-2-oxoquinolin-1(2H)-yl)acetamide]: the IC50 against JNK1, on JNK2 and at JNK3 was < 100 nM throughout.

With `O=C(Cc1cccc2ncc(F)cc12)Nc1scc(Br)c1-c1nc[nH]n1` [N-(4-bromo-3-(1H-1,2,4-triazol-3-yl)thiophen-2-yl)-2-(3-fluoroquinolin-5-yl)acetamide], the IC50 against JNK1, against JNK2 and at JNK3 was < 100 nM each time.

On to `Cn1cnc(-c2c(Br)csc2NC(=O)CN2C(=O)CCc3ncccc32)n1` [N-(4-bromo-3-(1-methyl-1H-1,2,4-triazol-3-yl)thiophen-2-yl)-2-(2-oxo-3,4-dihydro-1,5-naphthyridin-1(2H)-yl)acetamide], for which the IC50 at JNK1, at JNK2 and at JNK3 was < 100 nM each time.

With `N#Cc1csc(NC(=O)CN2C(=O)CCc3ccccc32)c1-c1ncn[nH]1` [N-(4-cyano-3-(1H-1,2,4-triazol-5-yl)thiophen-2-yl)-2-(2-oxo-3,4-dihydroquinolin-1(2H)-yl)acetamide], the IC50 against JNK1, at JNK2 and against JNK3 was < 100 nM throughout.

On to `Cn1cnc(-c2c(Cl)csc2NC(=O)CN2C(=O)CCc3ncccc32)n1` [N-(4-chloro-3-(1-methyl-1H-1,2,4-triazol-3-yl)thiophen-2-yl)-2-(2-oxo-3,4-dihydro-1,5-naphthyridin-1(2H)-yl)acetamide], for which the IC50 at JNK1, against JNK2 and against JNK3 was < 100 nM in each case.

For `N#Cc1csc(NC(=O)Cc2cccc3ncccc23)c1-c1nnc[nH]1` [N-(4-cyano-3-(4H-1,2,4-triazol-3-yl)thiophen-2-yl)-2-(quinolin-5-yl)acetamide], the IC50 at JNK1, against JNK2 and against JNK3 was < 100 nM throughout.

As to `O=C(Cn1c(=O)ccn2nccc12)Nc1scc(Cl)c1-c1ncn[nH]1` [N-(4-chloro-3-(1H-1,2,4-triazol-5-yl)thiophen-2-yl)-2-(5-oxopyrazolo[1,5-a]pyrimidin-4(5H)-yl)acetamide], the IC50 on JNK1, against JNK2 and on JNK3 was < 100 nM in each case.

In the case of `N#Cc1ccc2c(ccc(=O)n2CC(=O)Nc2scc(Br)c2-c2ncn[nH]2)c1` [N-(4-bromo-3-(1H-1,2,4-triazol-5-yl)thiophen-2-yl)-2-(6-cyano-2-oxoquinolin-1(2H)-yl)acetamide], the concentration for half-maximal inhibition (IC50) at JNK1, at JNK2 and against JNK3 was < 100 nM in each case.

`O=C(CN1C(=O)CCc2cc(F)ccc21)Nc1scc(Br)c1-c1ncn[nH]1` [N-(4-bromo-3-(1H-1,2,4-triazol-5-yl)thiophen-2-yl)-2-(6-fluoro-2-oxo-3,4-dihydroquinolin-1(2H)-yl)acetamide]: the IC50 against JNK1, against JNK2 and against JNK3 was < 100 nM throughout.

As to `Cc1n[nH]c(-c2c(C)csc2NC(=O)CN2C(=O)CCc3ccccc32)n1` [N-(4-methyl-3-(3-methyl-1H-1,2,4-triazol-5-yl)thiophen-2-yl)-2-(2-oxo-3,4-dihydroquinolin-1(2H)-yl)acetamide], the IC50 on JNK1, against JNK2 and against JNK3 was < 100 nM each time.

As for `O=C(Cn1c(=O)ccc2nc(C(F)(F)F)ccc21)Nc1scc(Cl)c1-c1ncn[nH]1` [N-(4-chloro-3-(1H-1,2,4-triazol-5-yl)thiophen-2-yl)-2-(2-oxo-6-(trifluoromethyl)-1,5-naphthyridin-1(2H)-yl)acetamide], the IC50 against JNK1, on JNK2 and against JNK3 was < 100 nM throughout.

In the case of `O=C(Cn1c(=O)ccc2cc(F)c(F)cc21)Nc1scc(Br)c1-c1ncn[nH]1` [N-(4-bromo-3-(1H-1,2,4-triazol-5-yl)thiophen-2-yl)-2-(6,7-difluoro-2-oxoquinolin-1(2H)-yl)acetamide], the IC50 on JNK1, on JNK2 and on JNK3 was < 100 nM in each case.

As for `N#Cc1csc(NC(=O)CN2C(=O)CCc3ncccc32)c1-c1nc[nH]n1` [N-(4-cyano-3-(1H-1,2,4-triazol-3-yl)thiophen-2-yl)-2-(2-oxo-3,4-dihydro-1,5-naphthyridin-1(2H)-yl)acetamide], the IC50 on JNK1, against JNK2 and against JNK3 was < 100 nM throughout.

As for `Cn1cnc(-c2c(C#N)csc2NC(=O)Cc2cccc3ncccc23)n1` [N-(4-cyano-3-(1-methyl-1H-1,2,4-triazol-3-yl)thiophen-2-yl)-2-(quinolin-5-yl)acetamide], the IC50 at JNK1, at JNK2 and against JNK3 was < 100 nM throughout.

As to `O=C(CN1C(=O)CCc2ccc(Cl)cc21)Nc1scc(Br)c1-c1ncn[nH]1` [N-(4-bromo-3-(1H-1,2,4-triazol-5-yl)thiophen-2-yl)-2-(7-chloro-2-oxo-3,4-dihydroquinolin-1(2H)-yl)acetamide], the IC50 against JNK1, against JNK2 and against JNK3 was < 100 nM each time.

For the compound `O=C(Cc1ccc(F)c2cnccc12)Nc1scc(Br)c1-c1ncn[nH]1` [N-(4-bromo-3-(1H-1,2,4-triazol-5-yl)thiophen-2-yl)-2-(8-fluoroisoquinolin-5-yl)acetamide], the IC50 against JNK1, against JNK2 and against JNK3 was < 100 nM in each case.
